Biological target: T1, Human BOAT1 (Homo sapiens, UniProt Q695T7)
T1 construct: expressed in transfected cells
T1 sequence (Q695T7 1-634): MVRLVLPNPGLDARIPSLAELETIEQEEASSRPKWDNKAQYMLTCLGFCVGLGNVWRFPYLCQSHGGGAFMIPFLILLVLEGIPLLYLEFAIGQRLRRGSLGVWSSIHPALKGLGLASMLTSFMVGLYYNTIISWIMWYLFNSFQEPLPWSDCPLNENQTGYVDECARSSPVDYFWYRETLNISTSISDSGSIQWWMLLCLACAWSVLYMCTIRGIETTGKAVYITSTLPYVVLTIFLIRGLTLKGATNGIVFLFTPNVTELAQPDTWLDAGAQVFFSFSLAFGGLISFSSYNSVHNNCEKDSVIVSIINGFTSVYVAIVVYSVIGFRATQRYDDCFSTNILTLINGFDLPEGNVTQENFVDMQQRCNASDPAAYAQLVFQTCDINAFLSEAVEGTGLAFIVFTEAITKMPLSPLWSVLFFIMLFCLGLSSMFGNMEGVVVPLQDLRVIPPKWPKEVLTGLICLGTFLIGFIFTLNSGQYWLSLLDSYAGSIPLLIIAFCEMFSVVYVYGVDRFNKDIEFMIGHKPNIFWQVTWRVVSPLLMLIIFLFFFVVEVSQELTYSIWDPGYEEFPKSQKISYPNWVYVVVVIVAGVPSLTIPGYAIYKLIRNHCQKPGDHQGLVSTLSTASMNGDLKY
Experiment: hBOAT1 inhibitory test (phenylalanine uptake)
Format: cell-based
Conditions: Human BOAT1 stable expression CHO cells; [3H]-L-phenylalanine uptake, phenylalanine 0.25 mM; radioactivity after 100 to 200 min; read-out: hB0AT1 IC50
Method: A test compound dissolved in dimethyl sulfoxide (DMSO) was added to a 96 well plate for solid phase radioactivity measurement containing a scintillator at the bottom of the well (final concentration of DMSO 0.5%). DMSO alone as a control and DMSO containing N-(4-bromophenyl)-3,5-dichloro-2-hydroxybenzamide (final concentration […]) for the measurement of BOAT1 non-specific uptake were similarly added at 0.5 μL per well. Human BOAT1 stable expression CHO cells suspended in a buffer (buffer containing 96 mM sodium chloride, 2 mM potassium chloride, 1.8 mM calcium chloride, 1 mM magnesium chloride, 0.01% bovine serum albumin, and 10 mM 2-[4-(2-hydroxyethyl)-1-piperazinyl]ethanesulfonic acid) were added by 90 μL to 75000 cells/well. After standing at ordinary temperature for 30 min or longer, the cells were subjected to a phenylalanine uptake experiment. A buffer containing L-phenylalanine and [3,4,5-3H]-L-phenylalanine was added by 10 μL per well (final concentration of phenylalanine 0.25 mM), and the radioactivity of the plate bottom surface at ordinary temperature was measured with a scintillation counter over time, and the radioactivity value after 100 to 200 min was analyzed.

Compared with `O=C(O)Cc1cc2c(cc1Cl)CN(C(=O)CNC(=O)/C=C/c1ccc(C(F)(F)F)cc1F)CC2` [I-221], `Cc1cc2c(cc1CC(=O)O)CCN(C(=O)CNC(=O)/C=C/c1ccc(C(F)(F)F)cc1)C2` [I-230] is 1.7-fold higher in IC50: 71 nM for the first, 124 nM for the second.

First: N#Cc1cc2c(cc1CC(=O)O)CCN(C(=O)CNC(=O)/C=C/c1ccc(I)cc1)C2 [I-222]
Second: CCC(F)(F)c1ccc(/C=C/C(=O)NCC(=O)N2CCc3cc(CC(=O)O)ccc3C2)cc1 [I-227]
The IC50 of the first is 6.2-fold lower: 107 nM for the first, 667 nM for the second.

Going from `O=C(O)CCCCc1ccc2c(c1)CCN(C(=O)CNC(=O)/C=C/c1ccc(C(F)(F)F)cc1)C2` [I-228] to `O=C(O)CCc1cccc2c1CCN2C(=O)CNC(=O)/C=C/c1ccc(C(F)(F)F)cc1` [I-246], the IC50 falls from 462 nM to 44 nM (10-fold).

Going from `O=C(/C=C/c1ccc(C(F)(F)F)cc1)NCC(=O)N1CCCC(C23CCC(C2)C3C(=O)O)C1` (centres unmarked) [I-229] to `CNC(=O)Cc1cnn2c1CN(C(=O)CNC(=O)/C=C/c1ccc(C(F)(F)F)cc1)CC2` [I-374], the IC50 falls from 152 nM to 54 nM (2.8-fold).

Compared with `O=C(O)CCc1cccc2c1CCN2C(=O)CNC(=O)/C=C/c1ccc(C(F)(F)F)cc1F` [I-245], `C[C@H]1CN(CCCC(=O)O)C[C@H](c2ccccc2)N1C(=O)CNC(=O)/C=C/c1ccc(C(F)(F)F)cc1F` [I-370] is 3.2-fold higher in IC50: 45 nM for the first, 143 nM for the second.

Compared with `O=C(/C=C/c1ccc(C(F)(F)F)cc1F)NCC(=O)N1CCN(Cc2ccc(C(=O)O)cc2)CC1c1ccc(Cl)cc1` (centres unmarked) [I-251], `C[C@@H]1CN(C(=O)CNC(=O)/C=C/c2ccc(C(F)(F)F)cc2F)[C@@H](c2ccc(C3CC3)cc2)CN1CCC(=O)O` [I-382, 3-[(2R,5S)-5-(4-cyclopropylphenyl)-4-[2-[[(E)-3-[2-fluoro-4-(trifluoromethyl)phenyl]prop-2-enoyl]amino]acetyl]-2-methylpiperazin-1-yl]propanoic acid] is 5.8-fold lower in IC50: 366 nM for the first, 63 nM for the second. The second is the more potent here.

`C[C@@H]1CN(CCCC(=O)O)C[C@H](c2ccccc2)N1C(=O)CNC(=O)/C=C/c1ccc(C(F)(F)F)cc1F` [I-371] and `C[C@@H]1CN(C(=O)CNC(=O)/C=C/c2ccc(C(F)(F)F)cc2F)[C@@H](c2ccccc2)CN1CCCc1nn[nH]n1` [I-379, (E)-3-[2-fluoro-4-(trifluoromethyl)phenyl]-N-[2-[(2S,5R)-4-[3-(1,2,3λ4,4-tetraazacyclopenta-2,4-dien-5-yl)propyl]-5-methyl-2-phenylpiperazin-1-yl]-2-oxoethyl]prop-2-enamide] are within 1.5-fold of each other in IC50: 3380 nM for the first, 2520 nM for the second.

First: CNC(=O)Cc1nc2c(s1)CCN(C(=O)CNC(=O)/C=C/c1ccc(C(F)(F)F)cc1F)C2 [I-376]
Second: CNC(=O)Cc1ccc2c(n1)CCN(C(=O)CNC(=O)/C=C/c1ccc(C(F)(F)F)cc1)C2 [I-377]
The IC50 of the first is 1.6-fold higher: 77 nM for the first, 48 nM for the second.

Work on `O=C(/C=C/c1ccc(C(F)(F)F)cc1F)NCC(=O)N1CCc2cc(Cc3nn[nH]n3)cc(Cl)c2C1` [I-378, (E)-N-[2-[8-chloro-6-(1,2,3λ4,4-tetraazacyclopenta-2,4-dien-5-ylmethyl)-3,4-dihydro-1H-isoquinolin-2-yl]-2-oxoethyl]-3-[2-fluoro-4-(trifluoromethyl)phenyl]prop-2-enamide] yielded an IC50 of 232 nM.

Same assay, conditions: Human BOAT1 stable expression CHO cells; phenylalanine uptake, phenylalanine 0.25 mM; read-out: hB0AT1 IC50

Going from `CC(C)(CCN1CCN(C(=O)CNC(=O)/C=C/c2ccc(C(F)(F)F)cc2F)C(c2ccc(Cl)cc2)C1)C(=O)O` (centres unmarked) [I-254] to `O=C(O)CCCN1CCN(C(=O)CNC(=O)/C=C/c2ccc(C(F)(F)F)cc2F)[C@@H](c2ccc(C3CC3)cc2)C1` [I-263], the IC50 falls from 97 nM to 18 nM (5.4-fold).

Compared with `O=C(O)CCCN1CCN(C(=O)CNC(=O)/C=C/c2ccc(C(F)(F)F)cc2F)C(c2cccc(C3CC3)c2)C1` (centres unmarked) [I-256], `O=C(O)CCCN1CCN(C(=O)CNC(=O)/C=C/c2ccc(C(F)(F)F)cc2F)C(c2cccc(C(F)(F)F)c2)C1` (centres unmarked) [I-262] is 2.6-fold higher in IC50: 48 nM for the first, 125 nM for the second.

Compared with `CN1CCN(C(=O)CNC(=O)/C=C/c2ccc(C(F)(F)F)cc2F)CC1c1cccc(C(=O)O)c1` (centres unmarked) [I-258], `CN1CCN(C(=O)CNC(=O)/C=C/c2ccc(C(F)(F)F)cc2F)CC1c1cccc(CC(=O)O)c1` (centres unmarked) [I-358] is 6-fold lower in IC50: 1330 nM for the first, 223 nM for the second. The second is the more potent here.

Going from `CC1(C)CN(C(=O)CNC(=O)/C=C/c2ccc(C(F)(F)F)cc2F)[C@@H](c2ccccc2)CN1CCCC(=O)O` [I-259] to `C[C@H]1[C@H](c2ccccc2)N(C(=O)CNC(=O)/C=C/c2ccc(C(F)(F)F)cc2F)CCN1CCCC(=O)O` [I-352], the IC50 rises from 140 nM to 3260 nM (23-fold).

`O=C(O)Cc1ccccc1C1=CCCN(C(=O)CNC(=O)/C=C/c2ccc(C(F)(F)F)cc2F)C1` [I-260] and `CNC(=O)Cc1cc(CC(=O)O)cc2c1CN(C(=O)CNC(=O)/C=C/c1ccc(C(F)(F)F)cc1F)CC2` [I-336] are within 1.5-fold of each other in IC50: 638 nM for the first, 661 nM for the second.

Going from `NC(=O)Cc1ccc2c(c1)CCN(C(=O)CNC(=O)/C=C/c1ccc(C(F)(F)F)cc1)C2` [I-273, (E)-N-[2-[6-(2-amino-2-oxoethyl)-3,4-dihydro-1H-isoquinolin-2-yl]-2-oxoethyl]-3-[4-(trifluoromethyl)phenyl]prop-2-enamide] to `NC(=O)Cc1ccc2c(c1)CN(C(=O)CNC(=O)/C=C/c1ccc(C(F)(F)F)cc1)CC2` [I-278], the IC50 rises from 22 nM to 40 nM (1.8-fold). The first is the more potent here.

Going from `O=C(/C=C/c1ccc(C(F)(F)F)cc1)NCC(=O)N1CCn2ncc(CCC(=O)N3CCCC3)c2C1` [I-274] to `CN(C)C(=O)CCc1cnn2c1CN(C(=O)CNC(=O)/C=C/c1ccc(C(F)(F)F)cc1)CC2` [I-275], the IC50 rises from 34 nM to 78 nM (2.3-fold). The first is the more potent here.

Going from `NC(=O)Cc1cc(F)c2c(c1)CCN(C(=O)CNC(=O)/C=C/c1ccc(C(F)(F)F)cc1)C2` [I-276] to `CNC(=O)Cc1ccc2c(c1)CCN(C(=O)CNC(=O)/C=C/c1ccc(C(F)(F)F)cc1)C2` [I-277], the IC50 rises from 17 nM to 30 nM (1.8-fold). The first is the more potent here.

Compared with `CN(C)C(=O)Cc1cc(Cl)c2c(c1)CCN(C(=O)CNC(=O)/C=C/c1ccc(C(F)(F)F)cc1F)C2` [I-279], `CONC(=O)Cc1cc(Cl)c2c(c1)CCN(C(=O)CNC(=O)/C=C/c1ccc(C(F)(F)F)cc1F)C2` [I-281] is 3-fold lower in IC50: 21 nM for the first, 7 nM for the second.

`O=C(/C=C/c1ccc(C(F)(F)F)cc1F)NCC(=O)N1CCc2cc(CC(=O)NCCO)cc(Cl)c2C1` [I-280] and `CNC(=O)Cc1nc2c(s1)CN(C(=O)CNC(=O)/C=C/c1ccc(C(F)(F)F)cc1F)CC2` [I-284] are within 1.5-fold of each other in IC50: 19 nM for the first, 25 nM for the second.

First: CNC(=O)Cn1cc2c(n1)CN(C(=O)CNC(=O)/C=C/c1ccc(C(F)(F)F)cc1)CC2 [I-282]
Second: CNC(=O)Cn1ncc2c1CN(C(=O)CNC(=O)/C=C/c1ccc(C(F)(F)F)cc1)CC2 [I-283]
The IC50 of the first is 2.7-fold higher: 700 nM for the first, 256 nM for the second.

First: C[C@@H]1CN(C(=O)CNC(=O)/C=C/c2ccc(C(F)(F)F)cc2F)[C@@H](c2ccccc2)CN1CC#CC(=O)O [I-320]
Second: CC(CN1C[C@H](c2ccccc2)N(C(=O)CNC(=O)/C=C/c2ccc(C(F)(F)F)cc2F)C[C@H]1C)C(=O)O (some centres unmarked) [I-347]
The IC50 of the first is 7.6-fold lower: 352 nM for the first, 2690 nM for the second.

First: C[C@@H]1CN(C(=O)CNC(=O)/C=C/c2ccc(C(F)(F)F)cc2F)[C@@H](c2ccccc2)CN1CCC(C)(C)C(=O)O [I-344]
Second: C[C@@H]1CN(C(=O)CNC(=O)/C=C/c2ccc(C(F)(F)F)cc2F)[C@@H](c2ccccc2)CN1CC(C)(C)C(=O)O [I-346]
The IC50 of the first is 8.5-fold lower: 122 nM for the first, 1040 nM for the second.

Going from `CC(CCN1C[C@H](c2ccccc2)N(C(=O)CNC(=O)/C=C/c2ccc(C(F)(F)F)cc2F)C[C@H]1C)C(=O)O` (some centres unmarked) [I-345] to `O=C(O)CCCN1C[C@H](c2ccccc2)N(C(=O)CNC(=O)/C=C/c2ccc(C(F)(F)F)cc2F)C[C@H]1C(F)(F)F` [I-399], the IC50 rises from 1780 nM to 2890 nM (1.6-fold). The first is the more potent here.

Compared with `C[C@@H]1CN(C(=O)CNC(=O)/C=C/c2ccc(C(F)(F)F)cc2F)[C@@H](c2cccs2)CN1CCCC(=O)O` [I-357], `O=C(O)CCCN1CCN(C(=O)CNC(=O)/C=C/c2ccc(C(F)(F)F)cc2F)C(c2noc3ccccc23)C1` (centres unmarked) [I-400] is 2.7-fold higher in IC50: 107 nM for the first, 292 nM for the second.

First: O=C(/C=C/c1ccc(C(F)(F)F)cc1F)NCC(=O)N1CCCC(N2CC[C@@H](C(=O)O)C2)C1 (some centres unmarked) [I-359]
Second: O=C(/C=C/c1ccc(C(F)(F)F)cc1F)NCC(=O)N1CCCC(N2CC[C@H](C(=O)O)C2)C1 (some centres unmarked) [I-360]
The IC50 of the first is 2.6-fold lower: 1110 nM for the first, 2860 nM for the second. The first is the more potent here.

Going from `O=C(O)C[C@H]1CCN(C2CCCN(C(=O)CNC(=O)/C=C/c3ccc(C(F)(F)F)cc3F)C2)C1` (some centres unmarked) [I-361] to `O=C(O)C[C@@H]1CCN(C2CCCN(C(=O)CNC(=O)/C=C/c3ccc(C(F)(F)F)cc3F)C2)C1` (some centres unmarked) [I-362], the IC50 rises from 879 nM to 1400 nM (1.6-fold). The first is the more potent here.

Going from `O=C(O)CCCN1CCN(C(=O)CNC(=O)/C=C/c2ccc(C(F)(F)F)cc2F)C(C2CCCCC2)C1` (centres unmarked) [I-365] to `O=C(O)CCCN1CCN(C(=O)CNC(=O)C=Cc2ccc(C(F)(F)F)cc2F)C(c2nc(-c3ccccc3)no2)C1` (centres unmarked) [I-402], the IC50 rises from 69 nM to 235 nM (3.4-fold).

Source: patent publication US20260001849A1, “NOVEL B0AT1 INHIBITOR” (MITSUBISHI TANABE PHARMA CORPORATION, priority 2023, published 2026)
